{"source": "patent US8168592B2", "about": "(Amgen Inc., priority 2005, dated 2012)", "target": "T1, CGRP1 receptor (Homo sapiens, UniProt O60894+Q16602)", "T1 construct": "SK-N-MC cells express CRLR and RAMP1, which form CGRP1 receptor; endogenous in cells; host or cells: SK-N-MC human neuroblastoma cells", "T1 sequence (Q16602 23-461)": "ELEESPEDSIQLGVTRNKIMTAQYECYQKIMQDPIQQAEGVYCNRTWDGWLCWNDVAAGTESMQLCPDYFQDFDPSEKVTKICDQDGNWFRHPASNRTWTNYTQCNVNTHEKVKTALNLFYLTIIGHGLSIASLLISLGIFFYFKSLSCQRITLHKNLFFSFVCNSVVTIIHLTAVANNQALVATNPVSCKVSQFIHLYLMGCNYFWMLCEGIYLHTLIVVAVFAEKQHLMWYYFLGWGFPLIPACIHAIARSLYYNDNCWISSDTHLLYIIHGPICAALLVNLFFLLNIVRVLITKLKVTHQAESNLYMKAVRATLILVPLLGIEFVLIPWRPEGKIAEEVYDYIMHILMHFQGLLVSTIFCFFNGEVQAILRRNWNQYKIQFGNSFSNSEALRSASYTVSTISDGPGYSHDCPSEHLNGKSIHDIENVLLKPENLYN", "T1 sequence (O60894 27-148)": "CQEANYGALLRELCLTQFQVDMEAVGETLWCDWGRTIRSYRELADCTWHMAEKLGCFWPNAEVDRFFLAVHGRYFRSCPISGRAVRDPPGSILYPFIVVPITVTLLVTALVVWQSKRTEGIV", "assay": "in vitro CGRP1 receptor mediated cAMP assay in SK-N-MC cells", "type": "cell-based", "procedure": "The in vitro cAMP assay employed a human neuroblastoma-derived cell line (SK-N-MC). SK-N-MC cells express CRLR and RAMP1, which form CGRP1 receptor. CGRP1 receptor is a G-protein coupled receptor linked to the stimulatory G-protein, Gs. […] Briefly, two days before the assay, the cells were plated in 96-well plates in growth medium. On the day of the assay cells were rinsed with PBS followed by the addition of 60 μl of plasma free medium for 15 minutes at room temperature. […] The medium was then removed and the cells were lysed with 100 μl lysis buffer for 30 minutes at 37° C. for 30 minutes. Using a Tropix ELISA kit (Applied Biosystems, Foster City, Calif.), a cAMP-AP conjugate was diluted (1:100) and added (30 μl) to each well of a 96-well ELISA plate. An aliquot of the lysis buffer from the cell plate was then added to the ELISA plate followed by an aliquot of the cAMP antibody. This mixture was incubated for 1 hour at room temperature with gentle shaking. The ELISA plate was then washed 6× with wash buffer followed by the additions of a substrate enhancer. This mixture was incubated for 30 minutes at room temperature and then read on a MicroBeta Jet or EnVision plate reader. The results were analyzed using Prism (GraphPad).", "key": {"[1]": {"details": "Table 2C, unconjugated peptide, read-out: Peptide IC50"}}, "note": "Read-outs that look alike come from different tables or passages of the source. Bridge positions count the residues as written; N and C are the ends. Square brackets hold non-standard residues; d marks the D form. Peptide text beside a SMILES is read from it. Bip = N[C@@H](Cc1ccc(-c2ccccc2)cc1)C(=O)O; Oic = O=C(O)[C@@H]1C[C@@H]2CCCC[C@@H]2N1; 2Nal = N[C@@H](Cc1ccc2ccccc2c1)C(=O)O; hArg = N=C(N)NCCCC[C@H](N)C(=O)O; Tic = O=C(O)[C@@H]1Cc2ccccc2CN1; Cit = NC(=O)NCCC[C@H](N)C(=O)O; PEG = not defined here", "data": [{"compound": "SEQ ID NO:38 (Ac-WVTHRLAGLLSQSGGVVRK(PEG)NFVPTDVGPFAF-NH2; reading uncertain)", "values": [{"measurement": "more potent than the thioether-linked PEGylated analog SEQ ID NO:36", "setting": "amine linkage", "result": "more than 42 fold"}]}, {"compound": "SEQ ID NO:40 (Ac-WVTHQLAGLLSQSGGVVRK(PEG)NFVPTDVGPFAF-NH2; reading uncertain)", "values": [{"measurement": "antagonist activity in cAMP assay, in words", "result": "reasonably good in vitro potency"}]}, {"compound": "CC(=O)N[C@@H](Cc1c[nH]c2ccccc12)C(=O)N[C@H](C(=O)N[C@H](C(=O)N[C@@H](Cc1cnc[nH]1)C(=O)N[C@@H](CCCNC(N)=O)C(=O)N[C@@H](CC(C)C)C(=O)N[C@@H](C)C(=O)NCC(=O)N[C@@H](CC(C)C)C(=O)N[C@@H](CC(C)C)C(=O)N[C@@H](CO)C(=O)N[C@@H](CCCN=C(N)N)C(=O)N[C@@H](CO)C(=O)NCC(=O)NCC(=O)N[C@H](C(=O)N[C@H](C(=O)N[C@@H](CCCN=C(N)N)C(=O)N[C@@H](CCCCN)C(=O)N[C@@H](CC(N)=O)C(=O)N[C@@H](Cc1ccccc1)C(=O)N[C@H](C(=O)N1CCC[C@H]1C(=O)N[C@H](C(=O)N[C@@H](CC(=O)O)C(=O)N[C@H](C(=O)NCC(=O)N1CCC[C@H]1C(=O)N[C@@H](Cc1ccccc1)C(=O)N[C@@H](C)C(=O)N[C@@H](Cc1ccccc1)C(N)=O)C(C)C)[C@@H](C)O)C(C)C)C(C)C)C(C)C)[C@@H](C)O)C(C)C", "note": "[compound 861]", "values": [{"measurement": "IC50", "setting": "[1]", "result": 0.57, "unit": "nM"}]}, {"compound": "CC(=O)N[C@@H](Cc1c[nH]c2ccccc12)C(=O)N[C@H](C(=O)N[C@H](C(=O)N[C@@H](Cc1cnc[nH]1)C(=O)N[C@@H](CCCNC(N)=O)C(=O)N[C@@H](CC(C)C)C(=O)N[C@@H](C)C(=O)NCC(=O)N[C@@H](CC(C)C)C(=O)N[C@@H](CC(C)C)C(=O)N[C@@H](CO)C(=O)N[C@@H](CCCNC(N)=O)C(=O)N[C@@H](CO)C(=O)NCC(=O)NCC(=O)N[C@H](C(=O)N[C@H](C(=O)N[C@@H](CCCCN=C(N)N)C(=O)N[C@@H](CCCCN)C(=O)N[C@@H](CC(N)=O)C(=O)N[C@@H](Cc1ccccc1)C(=O)N[C@H](C(=O)N1CCC[C@H]1C(=O)N[C@H](C(=O)N[C@@H](CC(=O)O)C(=O)N[C@H](C(=O)NCC(=O)N1CCC[C@H]1C(=O)N1Cc2ccccc2C[C@H]1C(=O)N[C@@H](C)C(=O)N[C@@H](Cc1ccccc1)C(N)=O)C(C)C)[C@@H](C)O)C(C)C)C(C)C)C(C)C)[C@@H](C)O)C(C)C", "note": "[compound 131] (Ac-WVTH[Cit]LAGLLS[Cit]SGGVV[hArg]KNFVPTDVGP[Tic]AF-NH2)", "values": [{"measurement": "IC50", "setting": "Table 2A, read-out: IC50", "result": 89.9, "unit": "nM"}]}, {"compound": "Ac-WVTHRLAGLLSRPGGVVRKNFVPTDVGPFAF-NH2 [compound 854]", "values": [{"measurement": "IC50", "setting": "Table 2D, read-out: IC50", "result": 1.27, "unit": "nM"}]}, {"compound": "CC(=O)N[C@@H](Cc1c[nH]c2ccccc12)C(=O)N[C@H](C(=O)N[C@H](C(=O)N[C@@H](Cc1c[nH]cn1)C(=O)N[C@@H](CCCNC(N)=O)C(=O)N[C@@H](CC(C)C)C(=O)N[C@@H](C)C(=O)NCC(=O)N[C@@H](CC(C)C)C(=O)N[C@@H](CC(C)C)C(=O)N[C@@H](CO)C(=O)N[C@@H](CCCNC(N)=O)C(=O)N[C@@H](CO)C(=O)NCC(=O)NCC(=O)N[C@H](C(=O)N[C@H](C(=O)N[C@@H](CCCCNC(=N)N)C(=O)N[C@@H](CCCCN)C(=O)N[C@@H](CC(N)=O)C(=O)N[C@@H](Cc1ccc2ccccc2c1)C(=O)N[C@H](C(=O)N1CCC[C@H]1C(=O)N[C@H](C(=O)N[C@@H](CC(=O)O)C(=O)N[C@H](C(=O)NCC(=O)N1[C@H](C(=O)N[C@@H](Cc2ccccc2)C(=O)N[C@@H](C)C(=O)N[C@@H](Cc2ccccc2)C(N)=O)C[C@@H]2CCCC[C@@H]21)C(C)C)[C@@H](C)O)C(C)C)C(C)C)C(C)C)[C@@H](C)O)C(C)C", "note": "[compound 137] (Ac-WVTH[Cit]LAGLLS[Cit]SGGVV[hArg]KN[2Nal]VPTDVG[Oic]FAF-NH2)", "values": [{"measurement": "IC50", "setting": "Table 2A, read-out: IC50", "result": 2.66, "unit": "nM"}]}, {"compound": "Ac-WVTHRLAGLLSQSGGVVRKNFVPTDVGPFAF-NH2 [compound 856]", "values": [{"measurement": "IC50", "setting": "[1]", "result": 0.47, "unit": "nM"}]}, {"compound": "SEQ ID NO:30 (WVTHRLAGLLSXSGGVVRKNFVPTDVGPFAF; CGRP peptide; MOD_RES (1)..(1): …ON; MISC_FEATURE (12)..(12): xaa=citrulline; MISC_FEATURE (19)..(19): PEGylated; MOD_RES (31)..(31): AMIDATION)", "values": [{"measurement": "antagonist activity in cAMP assay, in words", "result": "relatively minor loss of in vitro antagonist activity"}]}, {"compound": "CC(=O)N[C@@H](Cc1c[nH]c2ccccc12)C(=O)N[C@H](C(=O)N[C@H](C(=O)N[C@@H](Cc1c[nH]cn1)C(=O)N[C@@H](CCCCNC(=N)N)C(=O)N[C@@H](CC(C)C)C(=O)N[C@H]1CCC(=O)NCCCC[C@@H](C(=O)N[C@@H](CCCNC(N)=O)C(=O)N[C@@H](CO)C(=O)NCC(=O)NCC(=O)N[C@H](C(=O)N[C@H](C(=O)N[C@@H](CCCCNC(=N)N)C(=O)N[C@@H](CCCCN)C(=O)N[C@@H](CC(N)=O)C(=O)N[C@@H](Cc2ccccc2)C(=O)N[C@H](C(=O)N2CCC[C@H]2C(=O)N[C@H](C(=O)N[C@@H](CC(=O)O)C(=O)N[C@H](C(=O)NCC(=O)N2[C@H](C(=O)N[C@@H](Cc3ccccc3)C(=O)N[C@@H](C)C(=O)N[C@@H](Cc3ccccc3)C(N)=O)C[C@@H]3CCCC[C@@H]32)C(C)C)[C@@H](C)O)C(C)C)C(C)C)C(C)C)NC(=O)[C@H](CC(C)C)NC(=O)[C@H](CC(C)C)NC(=O)CNC1=O)[C@@H](C)O)C(C)C", "note": "[compound 942] (Ac-WVTH[hArg]LEGLLK[Cit]SGGVV[hArg]KNFVPTDVG[Oic]FAF-NH2; lactam 7-11)", "values": [{"measurement": "IC50", "setting": "[1]", "result": 0.83, "unit": "nM"}]}, {"compound": "Ac-WVTHRLAGLLSRSGGVVCNNFVPTDVGPFAF-NH2 [compound 9]", "values": [{"measurement": "IC50", "setting": "Table 3, unconjugated CGRP peptide analogs, n = 2-4, read-out: IC50", "result": 2.15, "unit": "nM"}]}, {"compound": "CC(=O)N[C@@H](Cc1c[nH]c2ccccc12)C(=O)N[C@H](C(=O)N[C@H](C(=O)N[C@@H](Cc1c[nH]cn1)C(=O)N[C@@H](CCCNC(N)=O)C(=O)N[C@@H](CC(C)C)C(=O)N[C@@H](C)C(=O)NCC(=O)N[C@@H](CC(C)C)C(=O)N[C@@H](CC(C)C)C(=O)N[C@@H](CO)C(=O)N[C@@H](CCCNC(N)=O)C(=O)N[C@@H](CO)C(=O)NCC(=O)NCC(=O)N[C@H](C(=O)N[C@H](C(=O)N[C@@H](CCCCNC(=N)N)C(=O)N[C@@H](CCCCN)C(=O)N[C@@H](CC(N)=O)C(=O)N[C@@H](Cc1ccc(I)cc1)C(=O)N[C@H](C(=O)N1CCC[C@H]1C(=O)N[C@H](C(=O)N[C@@H](CC(=O)O)C(=O)N[C@H](C(=O)NCC(=O)N1CCC[C@H]1C(=O)N[C@@H](Cc1ccc(I)cc1)C(=O)N[C@@H](C)C(=O)N[C@@H](Cc1ccccc1)C(N)=O)C(C)C)[C@@H](C)O)C(C)C)C(C)C)C(C)C)[C@@H](C)O)C(C)C", "note": "[compound 928]", "values": [{"measurement": "IC50", "setting": "[1]", "result": 1.16, "unit": "nM"}]}, {"compound": "SEQ ID NO:36 (Ac-WVTHRLAGLLSQSGGVVRC(PEG)NFVPTDVGPFAF-NH2; reading uncertain)", "values": [{"measurement": "loss in antagonist activity on PEGylation relative to the unconjugated parent peptide", "setting": "cAMP assay", "result": "greater than 12 fold"}]}, {"compound": "SEQ ID NO:23 (WVTHRLAGLLSXSGGVVRKNFVPTDVGPFAF; CGRP peptide; MOD_RES (1)..(1): …ON; MISC_FEATURE (12)..(12): xaa=homoarginine; MOD_RES (31)..(31): AMIDATION)", "values": [{"measurement": "antagonist activity in cAMP assay, in words", "result": "well tolerated"}]}, {"compound": "CC(=O)N[C@@H](Cc1c[nH]c2ccccc12)C(=O)N[C@H](C(=O)N[C@H](C(=O)N[C@@H](Cc1c[nH]cn1)C(=O)N[C@@H](CCCNC(N)=O)C(=O)N[C@@H](CC(C)C)C(=O)N[C@@H](C)C(=O)NCC(=O)N[C@@H](CC(C)C)C(=O)N[C@@H](CC(C)C)C(=O)N[C@@H](CO)C(=O)N[C@@H](CCCNC(N)=O)C(=O)N[C@@H](CO)C(=O)NCC(=O)NCC(=O)N[C@H](C(=O)N[C@H](C(=O)N[C@@H](CCCCNC(=N)N)C(=O)N[C@@H](CCCCN)C(=O)N[C@@H](CC(N)=O)C(=O)N[C@@H](Cc1ccccc1)C(=O)N[C@H](C(=O)N1[C@H](C(=O)N[C@H](C(=O)N[C@@H](CC(=O)O)C(=O)N[C@H](C(=O)NCC(=O)N2CCC[C@H]2C(=O)N[C@@H](Cc2ccc(-c3ccccc3)cc2)C(=O)N[C@@H](C)C(=O)N[C@@H](Cc2ccccc2)C(N)=O)C(C)C)[C@@H](C)O)C[C@@H]2CCCC[C@@H]21)C(C)C)C(C)C)C(C)C)[C@@H](C)O)C(C)C", "note": "[compound 134] (Ac-WVTH[Cit]LAGLLS[Cit]SGGVV[hArg]KNFV[Oic]TDVGP[Bip]AF-NH2)", "values": [{"measurement": "IC50", "setting": "Table 2A, read-out: IC50", "result": 3.85, "unit": "nM"}]}, {"compound": "CC(=O)N[C@@H](Cc1c[nH]c2ccccc12)C(=O)N[C@H](C(=O)N[C@H](C(=O)N[C@@H](Cc1c[nH]cn1)C(=O)N[C@@H](CCCNC(=N)N)C(=O)N[C@@H](CC(C)C)C(=O)N[C@@H](C)C(=O)NCC(=O)N[C@@H](CC(C)C)C(=O)N[C@@H](C)C(=O)N[C@@H](CO)C(=O)N[C@@H](CCCNC(N)=O)C(=O)N[C@@H](CO)C(=O)NCC(=O)NCC(=O)N[C@H](C(=O)N[C@H](C(=O)N[C@@H](CCCNC(=N)N)C(=O)N[C@@H](CCCCN)C(=O)N[C@@H](CC(N)=O)C(=O)N[C@@H](Cc1ccccc1)C(=O)N[C@H](C(=O)N1CCC[C@H]1C(=O)N[C@H](C(=O)N[C@@H](CC(=O)O)C(=O)N[C@H](C(=O)NCC(=O)N1CCC[C@H]1C(=O)N[C@@H](Cc1ccccc1)C(=O)N[C@@H](C)C(=O)N[C@@H](Cc1ccccc1)C(N)=O)C(C)C)[C@@H](C)O)C(C)C)C(C)C)C(C)C)[C@@H](C)O)C(C)C", "note": "[compound 850] (Ac-WVTHRLAGLAS[Cit]SGGVVRKNFVPTDVGPFAF-NH2)", "values": [{"measurement": "IC50", "setting": "Table 2D, read-out: IC50", "result": 1.85, "unit": "nM"}]}]}
